IC50 data for 13 molecules are collected here from US20220135591A1, “HETEROCYCLIC COMPOUNDS AS INHIBITORS OF MONOACYLGLYCEROL LIPASE (MAGL)” (Hoffmann-La Roche Inc., priority 2019, published 2022).

The assay has as its target T1, MAGL (recombinant wild-type) (Homo sapiens, UniProt Q99685).
T1 sequence (Q99685 1-303): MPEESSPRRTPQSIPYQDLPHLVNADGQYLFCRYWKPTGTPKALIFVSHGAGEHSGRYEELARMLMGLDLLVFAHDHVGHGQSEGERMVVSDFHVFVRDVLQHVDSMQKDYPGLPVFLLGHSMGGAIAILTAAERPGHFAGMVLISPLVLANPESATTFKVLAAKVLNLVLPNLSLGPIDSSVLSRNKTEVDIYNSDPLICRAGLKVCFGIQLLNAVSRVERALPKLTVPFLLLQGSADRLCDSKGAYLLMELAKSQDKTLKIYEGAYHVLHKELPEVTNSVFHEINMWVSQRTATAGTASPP
Briefly: 4-NPA assay: MAGL inhibitory activity by hydrolysis of 4-nitrophenylacetate, absorbance at 405 nm. The format is biochemical. The settings on record: 4-NPA assay (values without footnote [b]). The method in brief:
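Final assay: 1 nM MAGL and 300 μM 4-nitrophenylacetate in 50 mM Tris, 1 mM EDTA, at RT. Compounds (25 μM–1.7 nM, 3-fold steps) were preincubated 15 min with enzyme. A405 was read 5 min after substrate addition and again after 80 min; activity was taken as the difference between reads.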

A word on the IC50: it is the concentration at which inhibition is half-maximal. As for `Cc1ccc2oc(N3CCN(C(=O)c4ccc(-c5noc(C6(F)CC6)n5)cc4)CC3)nc2n1` [Example 35, [4-[5-(1-fluorocyclopropyl)-1,2,4-oxadiazol-3-yl]phenyl]-[4-(5-methyloxazolo[4,5-b]pyridin-2-yl)piperazin-1-yl]methanone], the IC50 came to 369 nM.

With `Cc1ccc2oc(N3CCN(C(=O)c4ccc(-c5nnc(C(C)(C)C)o5)cc4)CC3)nc2n1` [Example 31, [4-(5-tert-butyl-1,3,4-oxadiazol-2-yl)phenyl]-[4-(5-methyloxazolo[4,5-b]pyridin-2-yl)piperazin-1-yl]methanone], the IC50 was found to be 260 nM.

With `CC(C)(C)Cc1nc(-c2ccc(C(=O)N3CCN(c4nc5nc(C#N)ccc5o4)CC3)cc2)no1` [Example 260, 2-(4-(4-(5-neopentyl-1,2,4-oxadiazol-3-yl)benzoyl)piperazin-1-yl)oxazolo[4,5-b]pyridine-5-carbonitrile], the IC50 came out at 301 nM.

With `CCC(CC)c1nc2ccc(C(=O)N3CCN(c4nc5nc(C)ccc5o4)CC3)cc2o1` [Example 15, [2-(1-ethylpropyl)-1,3-benzoxazol-6-yl]-[4-(5-methyloxazolo[4,5-b]pyridin-2-yl)piperazin-1-yl]methanone], the IC50 turned out to be 352 nM.

As to `CC(C)(C)c1nc(-c2ccc(C(=O)N3CCN(c4nc5nc(C6CC6)ccc5o4)CC3)cc2)no1` [Example 189, (4-(5-(tert-butyl)-1,2,4-oxadiazol-3-yl)phenyl)(4-(5-cyclopropyloxazolo[4,5-b]pyridin-2-yl)piperazin-1-yl)methanone], the IC50 was 2490 nM.

Regarding `Cc1ccc2oc(N3CCN(C(=O)c4cc(Cl)cc(N5CCC(CO)CC5)c4)CC3)nc2n1` [Example 178, [3-chloro-5-[4-(hydroxymethyl)piperidin-1-yl]phenyl]-[4-(5-methyl-[1,3]oxazolo[4,5-b]pyridin-2-yl)piperazin-1-yl]methanone], the IC50 turned out to be 2490 nM.

As for `O=C(c1ccc(N2CC3(CCCO3)C2)cc1)N1CCN(c2nc3ncccc3o2)CC1` [Example 192, (4-(5-oxa-2-azaspiro[3.4]octan-2-yl)phenyl)(4-(oxazolo[4,5-b]pyridin-2-yl)piperazin-1-yl)methanone], the IC50 was determined as 4120 nM.

Consider `Cc1ccc2oc(N3CCN(C(=O)c4ccc5nc(C6CCCCC6)oc5c4)CC3)nc2n1` [Example 17, (2-cyclohexyl-1,3-benzoxazol-6-yl)-[4-(5-methyloxazolo[4,5-b]pyridin-2-yl)piperazin-1-yl]methanone], for which the half-inhibitory concentration (IC50) stood at 36 nM.

For the molecule `Cc1ccc2oc(N3CCN(C(=O)c4ccc(-c5noc(C6(CF)CC6)n5)cc4)CC3)nc2n1` [Example 36, [4-[5-[1-(fluoromethyl)cyclopropyl]-1,2,4-oxadiazol-3-yl]phenyl]-[4-(5-methyloxazolo[4,5-b]pyridin-2-yl)piperazin-1-yl]methanone], the IC50 came to 257 nM.

Regarding `CC(C)(C)c1nc(-c2ccc(C(=O)N3CCN(c4nc5nc(Cl)ccc5o4)CC3)cc2F)no1` [Example 59, [4-(5-tert-butyl-1,2,4-oxadiazol-3-yl)-3-fluoro-phenyl]-[4-(5-chlorooxazolo[4,5-b]pyridin-2-yl)piperazin-1-yl]methanone], the IC50 was determined as 15 nM.

Consider `Cc1ccc2oc(N3CCN(C(=O)c4ccc(OCC(C)(C)C)c(C)c4)CC3)nc2n1` [Example 65, [4-(2,2-dimethylpropoxy)-3-methyl-phenyl]-[4-(5-methyloxazolo[4,5-b]pyridin-2-yl)piperazin-1-yl]methanone], for which the IC50 came out at 11 nM.

On to `CC(C)(C)c1cn(-c2ccc(C(=O)N3CCN(c4nc5nc(Cl)ccc5o4)CC3)cc2)cn1` [Example 63, [4-(4-tert-butylimidazol-1-yl)phenyl]-[4-(5-chlorooxazolo[4,5-b]pyridin-2-yl)piperazin-1-yl]methanone], for which the IC50 came out at 20 nM.

Consider `Cc1ccc2oc(N3CCN(C(=O)c4ccc(N5CC(OC(C)C(F)(F)F)C5)nc4)CC3)nc2n1` (stereo not shown) [Example 214, (4-(5-methyloxazolo[4,5-b]pyridin-2-yl)piperazin-1-yl)(6-(3-((1,1,1-trifluoropropan-2-yl)oxy)azetidin-1-yl)pyridin-3-yl)methanone], for which the IC50 was 170 nM.
